What was measured:
Experiment in all cases: greenhouse post-emergence herbicidal test
Assay type in all cases: in vivo
Setaria viridis = settings: application rate 1 kg/ha
Description: (§1) The seeds of the test plants were sown separately for each species. For the post-emergence treatment, the test plants were first grown to a height of 3 to 15 cm, depending on the plant habit, and only then treated with the active compounds which had been suspended or emulsified in water. For this purpose, the test plants were either sown directly and grown in the same containers, or they were first grown separately as seedlings and transplanted into the test containers a few days prior to treatment. The rate of application for the post-emergence treatment was 1.0 kg/ha of a.s. (active substance). Depending on the species, the plants were kept at 10-25° C. or 20-35° C. The test period extended over 2 to 4 weeks. During this time, the plants were tended, and their response to the individual treatments was evaluated. Evaluation was carried out using a scale from 0 to 100. 100 means no emergence of the plants, or complete destruction of at least the aerial parts, and 0 means no damage, or normal course of growth. The plants used in the greenhouse experiments belonged to the following species: [table]

Amaranthus retroflexus = test system: Amaranthus retroflexus
Description: as §1, with “The rate of application for the post-emergence treatment was 1.0 kg/ha of a.s.” left out

Chenopodium album = test system: Chenopodium album
Description: as §1, with “The rate of application for the post-emergence treatment was 1.0 kg/ha of a.s.” left out

Galium aparine = settings: application rate 0.5 kg/ha
Description: as §1, with “The rate of application for the post-emergence treatment was 1.0 kg/ha of a.s.” left out

SMILES | post-emergence activity against Setaria viridis (Setaria viridis) | post-emergence activity against Amaranthus retroflexus (Amaranthus retroflexus; application rate 1 kg/ha) | post-emergence activity against Chenopodium album (Chenopodium album; application rate 1 kg/ha) | post-emergence activity against Amaranthus retroflexus (Amaranthus retroflexus; application rate 0.5 kg/ha) | post-emergence activity against Chenopodium album (Chenopodium album; application rate 0.5 kg/ha) | post-emergence activity against Galium aparine (Galium aparine)
CNC(=O)C(NC(=O)c1ccc(F)cc1C(F)(F)F)C(CNS(C)(=O)=O)c1ccccc1 (mixture of isomers) [Compound 4.4] | very good | very good | very good | – | – | –
CNC(=O)C(NC(=O)c1ccc(F)cc1C(F)(F)F)C(CNC(=O)N(C)C)c1ccccc1C (mixture of isomers) [Compound 4.33] | very good | very good | very good | – | – | –
CNC(=O)C(NC(=O)c1ccc(F)cc1C(F)(F)F)C(CNC(C)=O)c1ccccc1C (mixture of isomers) [Compound 4.34] | very good | very good | very good | – | – | –
CNC(=O)C(NC(=O)c1ccc(F)cc1C(F)(F)F)C(CNC(C)=O)c1cccc(F)c1C (mixture of isomers) [Compound 4.36] | very good | very good | very good | – | – | –
CNC(=O)C(NC(=O)c1ccc(F)cc1C(F)(F)F)C(c1ccccc1)C(C)[N+](=O)[O-] (mixture of isomers) [Compound 5.2] | – | – | – | very good | very good | very good
CNC(=O)C(NC(=O)c1ccc(F)cc1C(F)(F)F)C(C[N+](=O)[O-])c1cccc(F)c1 (mixture of isomers) [Compound 5.3] | – | very good | good | – | – | –
CNC(=O)C(NC(=O)c1ccc(F)cc1C(F)(F)F)C(C[N+](=O)[O-])c1cccc(F)c1C (mixture of isomers) [Compound 5.4] | – | very good | very good | – | – | –
CNC(=O)C(NC(=O)c1ccc(F)cc1C(F)(F)F)C(c1ccccc1C)C(C)O (racemic) [Compound 3.12] | – | – | – | very good | very good | very good
CNC(=O)C(NC(=O)c1ccc(F)cc1C(F)(F)F)C(CNC(=O)N(C)C)c1ccccc1 (racemic) [Compound 4.12] | very good | very good | very good | – | – | –
CNC(=O)[C@@H](NC(=O)c1ccc(F)cc1C(F)(F)F)[C@H](CNC(C)=O)c1ccccc1 (racemic) [Compound 4.16, N-((1RS,2RS)-3-Acetylamino-1-methylcarbamoyl-2-phenylpropyl)-4-fluoro-2-trifluoromethylbenzamide] | very good | very good | very good | – | – | –
CNC(=O)C(NC(=O)c1ccc(F)cc1C(F)(F)F)C(CNC(=O)C(F)(F)F)c1ccccc1 (racemic) [Compound 4.21] | very good | very good | very good | – | – | –
CNC(=O)C(NC(=O)c1ccc(F)cc1C(F)(F)F)C(CNC(=O)C(Cl)(Cl)Cl)c1ccccc1 (racemic) [Compound 4.22] | very good | very good | very good | – | – | –
CNC(=O)C(NC(=O)c1ccc(F)cc1C(F)(F)F)C(C[N+](=O)[O-])c1ccccc1 (racemic) [Compound 5.1, 4-Fluoro-N-(1-methylcarbamoyl-3-nitro-2-phenylpropyl)-2-trifluoromethylbenzamide] | – | – | – | very good | good | good
